Test results reported in patent US20250215012A1, “IKZF2 DEGRADERS AND USES THEREOF” (REGENTS OF THE UNIVERSITY OF MICHIGAN, priority 2022, published 2025).

Molecular target: IKZF2 (Homo sapiens (Human), UniProt Q96SW2+Q9UKS7)
Assay: IKZF2 HiBiT Assay (Jurkat-IKZF2-HiBiT cell line)
Type: cell-based
Settings: Jurkat-IKZF2-HiBiT cells, 24 hours; for DC50: read-out: HiBit assay degradation analysis DC50; for Dmax: read-out: HiBit assay degradation analysis Dmax
Summary of the method: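 Jurkat cells carrying HiBiT-tagged IKZF2 were exposed to serially diluted compound for 24 h at 37 °C. Remaining IKZF2 was measured by Nano-Glo HiBiT lytic luminescence after 10-20 min at room temperature. Signal was normalized to DMSO, and IC50 came from a four-parameter variable-slope fit.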

Sequence of IKZF2 (Q9UKS7 whole entry): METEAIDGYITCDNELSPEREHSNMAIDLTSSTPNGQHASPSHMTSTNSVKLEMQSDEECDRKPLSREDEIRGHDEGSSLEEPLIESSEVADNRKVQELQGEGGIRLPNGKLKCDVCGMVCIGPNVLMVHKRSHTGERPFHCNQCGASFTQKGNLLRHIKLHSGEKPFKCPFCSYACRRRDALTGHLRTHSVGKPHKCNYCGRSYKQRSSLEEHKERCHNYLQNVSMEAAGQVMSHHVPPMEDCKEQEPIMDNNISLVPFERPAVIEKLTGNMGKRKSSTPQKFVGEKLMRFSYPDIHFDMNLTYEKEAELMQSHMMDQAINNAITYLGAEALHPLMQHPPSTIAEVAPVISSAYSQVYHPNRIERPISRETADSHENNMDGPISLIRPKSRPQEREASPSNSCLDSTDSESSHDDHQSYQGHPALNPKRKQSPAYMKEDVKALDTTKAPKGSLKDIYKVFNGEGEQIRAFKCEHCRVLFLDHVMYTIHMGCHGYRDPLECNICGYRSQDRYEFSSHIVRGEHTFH
Sequence of IKZF2 (Q96SW2 whole entry): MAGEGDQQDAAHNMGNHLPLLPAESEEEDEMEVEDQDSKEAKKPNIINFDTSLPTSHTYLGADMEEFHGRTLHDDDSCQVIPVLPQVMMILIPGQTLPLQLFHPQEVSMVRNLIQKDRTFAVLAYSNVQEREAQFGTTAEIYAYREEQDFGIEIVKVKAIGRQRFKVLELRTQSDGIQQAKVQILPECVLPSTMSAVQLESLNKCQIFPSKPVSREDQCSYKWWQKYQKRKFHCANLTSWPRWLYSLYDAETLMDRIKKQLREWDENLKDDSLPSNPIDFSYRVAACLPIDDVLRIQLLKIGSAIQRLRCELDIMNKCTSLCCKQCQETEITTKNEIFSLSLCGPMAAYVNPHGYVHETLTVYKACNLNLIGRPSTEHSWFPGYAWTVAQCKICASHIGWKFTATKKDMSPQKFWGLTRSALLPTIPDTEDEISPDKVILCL
Sequence of IKZF2 (Q16531 whole entry partner): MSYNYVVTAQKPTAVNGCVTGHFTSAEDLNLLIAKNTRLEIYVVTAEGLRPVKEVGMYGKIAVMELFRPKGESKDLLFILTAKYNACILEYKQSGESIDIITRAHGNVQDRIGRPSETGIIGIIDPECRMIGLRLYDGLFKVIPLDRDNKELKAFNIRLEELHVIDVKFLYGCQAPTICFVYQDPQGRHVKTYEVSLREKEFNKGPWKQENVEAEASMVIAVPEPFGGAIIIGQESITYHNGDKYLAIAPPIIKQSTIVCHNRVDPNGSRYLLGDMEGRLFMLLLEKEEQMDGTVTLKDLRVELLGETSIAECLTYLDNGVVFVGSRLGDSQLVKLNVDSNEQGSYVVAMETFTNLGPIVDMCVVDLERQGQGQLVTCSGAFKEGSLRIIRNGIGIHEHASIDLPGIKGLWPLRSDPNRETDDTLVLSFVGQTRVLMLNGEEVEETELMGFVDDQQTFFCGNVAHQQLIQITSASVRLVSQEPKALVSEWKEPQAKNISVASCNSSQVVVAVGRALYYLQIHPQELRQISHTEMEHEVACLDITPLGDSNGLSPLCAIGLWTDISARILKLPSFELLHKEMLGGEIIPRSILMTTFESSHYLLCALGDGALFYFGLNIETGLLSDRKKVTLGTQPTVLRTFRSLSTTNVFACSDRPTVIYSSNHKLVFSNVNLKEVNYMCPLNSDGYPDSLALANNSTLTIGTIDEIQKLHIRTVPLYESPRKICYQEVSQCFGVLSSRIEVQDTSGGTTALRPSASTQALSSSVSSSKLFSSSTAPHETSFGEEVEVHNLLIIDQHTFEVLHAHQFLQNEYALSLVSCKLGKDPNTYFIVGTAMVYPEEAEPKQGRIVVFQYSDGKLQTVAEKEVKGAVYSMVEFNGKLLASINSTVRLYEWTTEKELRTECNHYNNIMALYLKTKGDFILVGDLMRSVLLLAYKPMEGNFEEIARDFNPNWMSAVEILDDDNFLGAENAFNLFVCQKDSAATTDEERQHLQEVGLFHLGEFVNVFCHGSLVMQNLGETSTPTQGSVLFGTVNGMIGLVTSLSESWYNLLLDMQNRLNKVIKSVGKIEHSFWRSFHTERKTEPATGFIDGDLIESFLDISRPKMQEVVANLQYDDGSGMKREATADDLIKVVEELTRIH

SMILES	DC50 [nM]	Dmax [%]
O=C1CCC(N2Cc3c(ccc4c3OCC43CCN(Cc4cnn(S(=O)(=O)c5ccc(Cl)cc5)c4)CC3)C2=O)C(=O)N1 [Compound A352, (S)-3-(1′-((1-((4-chlorophenyl)sulfonyl)-1H-pyrazol-4-yl)methyl)-6-oxo-6,8-dihydro-2H,7H-spiro[furo[2,3-e]isoindole-3,4′-piperidin]-7-yl)piperidine-2,6-dione]	200 to 500	
Cc1ccc2[nH]ncc2c1CN1CCC2(CC1)COc1c2ccc2c1CN(C1CCC(=O)NC1=O)C2=O (centres unmarked) [Compound A143, 3-(1′-((5-methyl-1H-indazol-4-yl)methyl)-6-oxo-6,8-dihydro-2H,7H-spiro[furo[2,3-e]isoindole-3,4′-piperidin]-7-yl)piperidine-2,6-dione]	< 50	60 to 80
O=C1CCC(N2Cc3c(ccc4c3OCC43CCN(Cc4ncnn4-c4ccccc4)CC3)C2=O)C(=O)N1 (centres unmarked) [Compound A254, 3-(6-oxo-1′-((1-phenyl-1H-1,2,4-triazol-5-yl)methyl)-6,8-dihydro-2H,7H-spiro[furo[2,3-e]isoindole-3,4′-piperidin]-7-yl)piperidine-2,6-dione]	> 500	< 40
CN(C(=O)c1cccc(CN2CCC3(CC2)COc2c3ccc3c2CN(C2CCC(=O)NC2=O)C3=O)c1)c1cccc(F)c1 (centres unmarked) [Compound A166, 3-((7-(2,6-dioxopiperidin-3-yl)-6-oxo-7,8-dihydro-2H,6H-spiro[furo[2,3-e]isoindole-3,4′-piperidin]-1′-yl)methyl)-N-(3-fluorophenyl)-N-methylbenzamide]	50 to 200	40 to 60
O=C1CCC(N2Cc3c(ccc4c3OCCC43CCN(Cc4ccc(Cl)cc4F)CC3)C2=O)C(=O)N1 (centres unmarked) [Compound A10, 3-(1-(4-chloro-2-fluorobenzyl)-7′-oxo-2′,3′,7′,9′-tetrahydro-8′H-spiro[piperidine-4,4′-pyrano[2,3-e]isoindol]-8′-yl)piperidine-2,6-dione]	> 500	< 40
O=C1CCC(N2Cc3c(ccc4c3OCC43CCN(Cc4ccc5scnc5c4)CC3)C2=O)C(=O)N1 (centres unmarked) [Compound A54, 3-(1′-(benzo[d]thiazol-5-ylmethyl)-6-oxo-6,8-dihydro-2H,7H-spiro[furo[2,3-e]isoindole-3,4′-piperidin]-7-yl)piperidine-2,6-dione]	50 to 200	40 to 60
COCCn1cc2ccc(CN3CCC4(CC3)COc3c4ccc4c3CN([C@H]3CCC(=O)NC3=O)C4=O)cc2n1 [Compound A287, (S)-3-(1′-((2-(2-methoxyethyl)-2H-indazol-6-yl)methyl)-6-oxo-6,8-dihydro-2H,7H-spiro[furo[2,3-e]isoindole-3,4′-piperidin]-7-yl)piperidine-2,6-dione]	< 50	60 to 80
O=C1CCC(N2Cc3c(ccc4c3OCC43CCN(Cc4ccc(F)c5ccccc45)CC3)C2=O)C(=O)N1 (centres unmarked) [Compound A36, 3-(1′-((4-fluoronaphthalen-1-yl)methyl)-6-oxo-6,8-dihydro-2H,7H-spiro[furo[2,3-e]isoindole-3,4′-piperidin]-7-yl)piperidine-2,6-dione]	50 to 200	60 to 80
O=C1CCC(N2Cc3c(ccc4c3OCC43CCN(Cc4cnc5[nH]ccc5c4)CC3)C2=O)C(=O)N1 (centres unmarked) [Compound A163, 3-(1′-((1H-pyrrolo[2,3-b]pyridin-5-yl)methyl)-6-oxo-6,8-dihydro-2H,7H-spiro[furo[2,3-e]isoindole-3,4′-piperidin]-7-yl)piperidine-2,6-dione]	< 50	60 to 80
O=C1CCC(N2Cc3c(ccc4c3OCC43CCN(Cc4cnn(-c5cccc(Cl)c5)c4)CC3)C2=O)C(=O)N1 (centres unmarked) [Compound A313, 3-(1′-((1-(3-chlorophenyl)-1H-pyrazol-4-yl)methyl)-6-oxo-6,8-dihydro-2H,7H-spiro[furo[2,3-e]isoindole-3,4′-piperidin]-7-yl)piperidine-2,6-dione]	50 to 200	60 to 80
O=C1CCC(N2Cc3c(ccc4c3OCC43CCN(Cc4cccc5cnccc45)CC3)C2=O)C(=O)N1 (centres unmarked) [Compound A39, 3-(1′-(isoquinolin-5-ylmethyl)-6-oxo-6,8-dihydro-2H,7H-spiro[furo[2,3-e]isoindole-3,4′-piperidin]-7-yl)piperidine-2,6-dione]	< 50	60 to 80
O=C1CCC(N2Cc3c(ccc4c3OCC43CCN(Cc4cccc5occc45)CC3)C2=O)C(=O)N1 (centres unmarked) [Compound A119, 3-(1′-(benzofuran-4-ylmethyl)-6-oxo-6,8-dihydro-2H,7H-spiro[furo[2,3-e]isoindole-3,4′-piperidin]-7-yl)piperidine-2,6-dione]	< 50	60 to 80
O=C1CCC(N2Cc3c(ccc4c3OCC43CCN(Cc4ccccc4-n4ccnc4)CC3)C2=O)C(=O)N1 (centres unmarked) [Compound A149, 3-(1′-(2-(1H-imidazol-1-yl)benzyl)-6-oxo-6,8-dihydro-2H,7H-spiro[furo[2,3-e]isoindole-3,4′-piperidin]-7-yl)piperidine-2,6-dione]	> 500	< 40
O=C1CCC(N2Cc3c(ccc4c3OCC43CCN(Cc4ccc5ccn(Cc6cccnc6)c5c4)CC3)C2=O)C(=O)N1 (centres unmarked) [Compound A154, 3-(6-oxo-1′-((1-(pyridin-3-ylmethyl)-1H-indol-6-yl)methyl)-6,8-dihydro-2H,7H-spiro[furo[2,3-e]isoindole-3,4′-piperidin]-7-yl)piperidine-2,6-dione]	200 to 500	60 to 80
Cn1cc(CN2CCC3(CC2)COc2c3ccc3c2CN(C2CCC(=O)NC2=O)C3=O)c(Cl)n1 (centres unmarked) [Compound A257, 3-(1′-((3-chloro-1-methyl-1H-pyrazol-4-yl)methyl)-6-oxo-6,8-dihydro-2H,7H-spiro[furo[2,3-e]isoindole-3,4′-piperidin]-7-yl)piperidine-2,6-dione]	> 500	< 40
O=C1CCC(N2Cc3c(ccc4c3OCC43CCN(Cc4cccc5c4OCO5)CC3)C2=O)C(=O)N1 (centres unmarked) [Compound A225, 3-(1′-(benzo[d][1,3]dioxol-4-ylmethyl)-6-oxo-6,8-dihydro-2H,7H-spiro[furo[2,3-e]isoindole-3,4′-piperidin]-7-yl)piperidine-2,6-dione]	> 500	40 to 60
O=C1CCC(N2Cc3c(ccc4c3OCC43CCN(Cc4cccc(CF)c4)CC3)C2=O)C(=O)N1 (centres unmarked) [Compound A93, 3-(1′-(3-(fluoromethyl)benzyl)-6-oxo-6,8-dihydro-2H,7H-spiro[furo[2,3-e]isoindole-3,4′-piperidin]-7-yl)piperidine-2,6-dione]	50 to 200	60 to 80
O=C1CCC(N2Cc3c(ccc4c3OCC43CCN(CC4Cc5ccccc5C4)CC3)C2=O)C(=O)N1 (centres unmarked) [Compound A22, 3-(1′-((2,3-dihydro-1H-inden-2-yl)methyl)-6-oxo-6,8-dihydro-2H,7H-spiro[furo[2,3-e]isoindole-3,4′-piperidin]-7-yl)piperidine-2,6-dione]	> 500	< 40
Cn1cc2c(CN3CCC4(CC3)COc3c4ccc4c3CN(C3CCC(=O)NC3=O)C4=O)cccc2n1 (centres unmarked) [Compound A67, 3-(1′-((2-methyl-2H-indazol-4-yl)methyl)-6-oxo-6,8-dihydro-2H,7H-spiro[furo[2,3-e]isoindole-3,4′-piperidin]-7-yl)piperidine-2,6-dione]	50 to 200	60 to 80
O=C1CCC(N2Cc3c(ccc4c3OCC43CCN(Cc4cc(C(F)(F)F)cc5[nH]ccc45)CC3)C2=O)C(=O)N1 (centres unmarked) [Compound A114, 3-(6-oxo-1′-((6-(trifluoromethyl)-1H-indol-4-yl)methyl)-6,8-dihydro-2H,7H-spiro[furo[2,3-e]isoindole-3,4′-piperidin]-7-yl)piperidine-2,6-dione]	50 to 200	60 to 80
O=C1CCC(N2Cc3c(ccc4c3OCC43CCN(CC4(c5ccccc5)CCC4)CC3)C2=O)C(=O)N1 (centres unmarked) [Compound A334, 3-(6-oxo-1′-((1-phenylcyclobutyl)methyl)-6,8-dihydro-2H,7H-spiro[furo[2,3-e]isoindole-3,4′-piperidin]-7-yl)piperidine-2,6-dione]	> 500	40 to 60
O=C1CCC(N2Cc3c(ccc4c3OCC43CCN(Cc4cnn(-c5cccc(F)c5)c4)CC3)C2=O)C(=O)N1 (centres unmarked) [Compound A311, 3-(1′-((1-(3-fluorophenyl)-1H-pyrazol-4-yl)methyl)-6-oxo-6,8-dihydro-2H,7H-spiro[furo[2,3-e]isoindole-3,4′-piperidin]-7-yl)piperidine-2,6-dione]	> 500	40 to 60
O=C1CC[C@H](N2Cc3c(ccc4c3OCC43CCN(Cc4cnn(C[C@H]5C[C@@H]5c5ccccc5)c4)CC3)C2=O)C(=O)N1 [Compound A347, (S)-3-(6-oxo-1′-((1-(((1S,2S)-2-phenylcyclopropyl)methyl)-1H-pyrazol-4-yl)methyl)-6,8-dihydro-2H,7H-spiro[furo[2,3-e]isoindole-3,4′-piperidin]-7-yl)piperidine-2,6-dione]		60 to 80
O=C1CCC(N2Cc3c(ccc4c3OCC43CCN(Cc4cccc5c4OCCO5)CC3)C2=O)C(=O)N1 (centres unmarked) [Compound A199, 3-(1′-((2,3-dihydrobenzo[b][1,4]dioxin-5-yl)methyl)-6-oxo-6,8-dihydro-2H,7H-spiro[furo[2,3-e]isoindole-3,4′-piperidin]-7-yl)piperidine-2,6-dione]	> 500	60 to 80
Cn1cc2cccc(CN3CCC4(CC3)COc3c4ccc4c3CN(C3CCC(=O)NC3=O)C4=O)c2n1 (centres unmarked) [Compound A75, 3-(1′-((2-methyl-2H-indazol-7-yl)methyl)-6-oxo-6,8-dihydro-2H,7H-spiro[furo[2,3-e]isoindole-3,4′-piperidin]-7-yl)piperidine-2,6-dione]	50 to 200	60 to 80
O=C1CCC(N2Cc3c(ccc4c3OCC43CCN(Cc4ccc5nccnc5c4)CC3)C2=O)C(=O)N1 (centres unmarked) [Compound A48, 3-(6-oxo-1′-(quinoxalin-6-ylmethyl)-6,8-dihydro-2H,7H-spiro[furo[2,3-e]isoindole-3,4′-piperidin]-7-yl)piperidine-2,6-dione]	> 500	< 40
